Laboratory results taken from the NIST ThermoML archive (doi:10.1016/j.jct.2013.09.043).

Experiment: xn = mol fraction of the nth substance listed
Conditions: 101 kPa, Liquid; for viscosity: Capillary tube (Ostwald / Ubbelohde) method; for mass density: Vibrating tube method

CCCC(C)O (stereo not given) [pentan-2-ol] + NC=O
Conditions | mass density, 298.15 K [kg/m3] | mass density, 303.15 K [kg/m3] | mass density, 308.15 K [kg/m3] | mass density, 313.15 K [kg/m3] | viscosity, 298.15 K [mPa·s] | viscosity, 303.15 K [mPa·s] | viscosity, 308.15 K [mPa·s] | viscosity, 313.15 K [mPa·s]
x2 = 0 | 805.05 | 800.88 | 796.89 | 792.62 | 3.423 | 2.834 | 2.348 | 1.979
x2 = 0.0823 | 814.65 | 810.45 | 806.51 | 802.09 | 3.386 | 2.811 | 2.328 | 1.959
x2 = 0.1639 | 825.39 | 821.13 | 817.19 | 812.73 | 3.363 | 2.801 | 2.329 | 1.973
x2 = 0.2393 | 836.58 | 832.27 | 828.29 | 823.79 | 3.353 | 2.811 | 2.348 | 2.004
x2 = 0.3541 | 856.48 | 852.09 | 848.01 | 843.52 | 3.379 | 2.864 | 2.409 | 2.075
x2 = 0.4444 | 875.19 | 870.77 | 866.59 | 862.13 | 3.402 | 2.911 | 2.468 | 2.144
x2 = 0.5612 | 904.57 | 900.13 | 895.87 | 891.4 | 3.422 | 2.964 | 2.544 | 2.237
x2 = 0.6497 | 932.05 | 927.6 | 923.33 | 918.86 | 3.431 | 2.989 | 2.587 | 2.298
x2 = 0.7431 | 967.72 | 963.24 | 959 | 954.54 | 3.42 | 3.003 | 2.615 | 2.343
x2 = 0.8502 | 1020.4 | 1016.03 | 1011.79 | 1007.32 | 3.384 | 3.001 | 2.628 | 2.38
x2 = 0.9398 | 1079.03 | 1074.66 | 1070.45 | 1066.08 | 3.341 | 2.988 | 2.635 | 2.403

NC=O [formamide] + CCC(C)O
Conditions | mass density, 298.15 K [kg/m3] | mass density, 303.15 K [kg/m3] | mass density, 308.15 K [kg/m3] | mass density, 313.15 K [kg/m3] | viscosity, 298.15 K [mPa·s] | viscosity, 303.15 K [mPa·s] | viscosity, 308.15 K [mPa·s] | viscosity, 313.15 K [mPa·s]
x1 = 0.0871 | 815.72 | 811.44 | 807.59 | 802.69 | 3.039 | 2.541 | 2.137 | 1.81
x1 = 0.1597 | 827.26 | 822.99 | 819.07 | 814.17 | 3.048 | 2.561 | 2.158 | 1.836
x1 = 0.2462 | 842.51 | 838.24 | 834.28 | 829.39 | 3.074 | 2.601 | 2.206 | 1.893
x1 = 0.3993 | 874.46 | 870.19 | 866.14 | 861.25 | 3.178 | 2.729 | 2.337 | 2.037
x1 = 0.4397 | 884.15 | 879.88 | 875.81 | 870.92 | 3.207 | 2.763 | 2.372 | 2.078
x1 = 0.5567 | 916.06 | 911.78 | 907.68 | 902.82 | 3.279 | 2.855 | 2.477 | 2.195
x1 = 0.6516 | 947.04 | 942.76 | 938.6 | 933.86 | 3.318 | 2.911 | 2.54 | 2.272
x1 = 0.7376 | 980.23 | 975.94 | 971.72 | 967.08 | 3.336 | 2.945 | 2.582 | 2.324
x1 = 0.8512 | 1033.92 | 1029.63 | 1025.39 | 1020.93 | 3.34 | 2.973 | 2.617 | 2.371
x1 = 0.9309 | 1080.54 | 1076.36 | 1072.19 | 1067.81 | 3.329 | 2.98 | 2.631 | 2.398
x1 = 1 | 1129 | 1125.1 | 1120.98 | 1116.85 | 3.305 | 2.975 | 2.64 | 2.42

CCCCC(C)O (stereo not given) [2-hexanol] + NC=O
Conditions | mass density, 298.15 K [kg/m3] | mass density, 303.15 K [kg/m3] | mass density, 308.15 K [kg/m3] | mass density, 313.15 K [kg/m3] | viscosity, 298.15 K [mPa·s] | viscosity, 303.15 K [mPa·s] | viscosity, 308.15 K [mPa·s] | viscosity, 313.15 K [mPa·s]
x2 = 0 | 810.14 | 806.13 | 802.06 | 797.96 | 4.101 | 3.411 | 2.819 | 2.219
x2 = 0.0818 | 818.06 | 814.05 | 809.79 | 805.72 | 4.008 | 3.334 | 2.753 | 2.171
x2 = 0.1638 | 827.12 | 823.03 | 818.79 | 814.58 | 3.918 | 3.276 | 2.711 | 2.16
x2 = 0.2392 | 836.66 | 832.51 | 828.24 | 823.99 | 3.85 | 3.23 | 2.69 | 2.169
x2 = 0.3529 | 853.7 | 849.5 | 845.26 | 841.01 | 3.778 | 3.176 | 2.679 | 2.199
x2 = 0.4439 | 870.39 | 866.2 | 861.95 | 857.71 | 3.744 | 3.187 | 2.686 | 2.235
x2 = 0.5613 | 897.25 | 893.04 | 888.76 | 884.48 | 3.695 | 3.185 | 2.71 | 2.3
x2 = 0.6496 | 922.95 | 918.63 | 914.3 | 909.96 | 3.647 | 3.169 | 2.724 | 2.35
x2 = 0.743 | 957.42 | 953.01 | 948.59 | 944.27 | 3.582 | 3.144 | 2.726 | 2.392
x2 = 0.8502 | 1010.56 | 1006.13 | 1001.67 | 997.41 | 3.479 | 3.078 | 2.695 | 2.406
x2 = 0.9398 | 1072.59 | 1068.37 | 1063.89 | 1059.71 | 3.378 | 3.021 | 2.662 | 2.413

CCCCCC(C)O (stereo not given) [2-heptanol] + NC=O
Conditions | mass density, 298.15 K [kg/m3] | mass density, 303.15 K [kg/m3] | mass density, 308.15 K [kg/m3] | mass density, 313.15 K [kg/m3] | viscosity, 298.15 K [mPa·s] | viscosity, 303.15 K [mPa·s] | viscosity, 308.15 K [mPa·s] | viscosity, 313.15 K [mPa·s]
x2 = 0 | 813.38 | 809.5 | 805.72 | 801.46 | 5.296 | 4.315 | 3.535 | 2.96
x2 = 0.0819 | 821.08 | 817.04 | 813.18 | 808.95 | 5.094 | 4.157 | 3.403 | 2.842
x2 = 0.1603 | 829.46 | 825.3 | 821.41 | 817.16 | 4.915 | 4.021 | 3.299 | 2.767
x2 = 0.2402 | 839.28 | 835.08 | 831.16 | 826.89 | 4.744 | 3.905 | 3.219 | 2.718
x2 = 0.3508 | 855.44 | 851.28 | 847.38 | 843.03 | 4.541 | 3.773 | 3.131 | 2.669
x2 = 0.4402 | 871.35 | 867.27 | 863.34 | 858.97 | 4.385 | 3.673 | 3.07 | 2.637
x2 = 0.567 | 900.02 | 895.95 | 891.92 | 887.52 | 4.176 | 3.543 | 2.997 | 2.607
x2 = 0.6525 | 924.85 | 920.66 | 916.51 | 912.11 | 4.035 | 3.459 | 2.952 | 2.593
x2 = 0.7403 | 957.01 | 952.58 | 948.4 | 944.03 | 3.881 | 3.363 | 2.896 | 2.571
x2 = 0.8501 | 1010.97 | 1006.37 | 1002.12 | 997.89 | 3.647 | 3.204 | 2.792 | 2.51
x2 = 0.94 | 1072.96 | 1068.47 | 1064.24 | 1059.95 | 3.446 | 3.069 | 2.701 | 2.455

NC=O [formamide] + CC(C)O
Conditions | mass density, 298.15 K [kg/m3] | mass density, 303.15 K [kg/m3] | mass density, 308.15 K [kg/m3] | mass density, 313.15 K [kg/m3] | viscosity, 298.15 K [mPa·s] | viscosity, 303.15 K [mPa·s] | viscosity, 308.15 K [mPa·s] | viscosity, 313.15 K [mPa·s]
x1 = 0.0831 | 797.37 | 793.08 | 788.56 | 783.84 | 2.167 | 1.867 | 1.623 | 1.399
x1 = 0.1563 | 813.03 | 808.66 | 803.98 | 799.2 | 2.254 | 1.948 | 1.688 | 1.464
x1 = 0.2377 | 831.8 | 827.33 | 822.51 | 817.62 | 2.382 | 2.064 | 1.791 | 1.567
x1 = 0.3518 | 860.85 | 856.24 | 851.26 | 846.25 | 2.585 | 2.259 | 1.974 | 1.745
x1 = 0.4403 | 885.89 | 881.14 | 876.01 | 871.03 | 2.739 | 2.409 | 2.115 | 1.884
x1 = 0.5371 | 916.34 | 911.48 | 906.38 | 901.3 | 2.888 | 2.556 | 2.256 | 2.026
x1 = 0.6352 | 950.91 | 946.08 | 940.93 | 935.92 | 3.015 | 2.684 | 2.371 | 2.144
x1 = 0.7388 | 992.47 | 987.75 | 982.64 | 977.69 | 3.127 | 2.789 | 2.464 | 2.233
x1 = 0.8497 | 1043.91 | 1039.54 | 1034.66 | 1029.87 | 3.218 | 2.878 | 2.541 | 2.312
x1 = 0.94 | 1092.69 | 1088.45 | 1083.96 | 1079.51 | 3.277 | 2.939 | 2.601 | 2.377
x1 = 1 | 1129 | 1125.1 | 1120.98 | 1116.85 | 3.305 | 2.975 | 2.64 | 2.42
